Tested on: Streptozotocin-induced diabetic pain model (diabetic rats)
Experiment: Pain relieving effect in streptozotocin-induced diabetic pain model
Type: in vivo, rat
Conditions: 1 mg/kg orally; pain threshold by von Frey filaments after 1 hour; STZ diabetic rats
Description: Streptozotocin (STZ)-administered rats are widely used as an insulin-dependent diabetes model. In this model, decreased pain thresholds in response to mechanical stimulation are observed as in diabetic neuropathy patients [British Journal of Pharmacology, 1997, Vol. 122, p. 1478-1482].
(1) Preparation of STZ-Induced Diabetes Model
A STZ solution was prepared as a 30 mg/mL solution by being dissolved in a 0.05 mol/L citric acid aqueous solution (pH 4 to 4.5). The STZ solution (30 mg/mL) was intraperitoneally administered in a 2 mL/kg volume to rats (60 mg/kg). Rats showing 250 mg/dL or higher blood glucose levels after 1 week from the STZ administration were obtained as diabetic rats.
(2) Measurement of Pain Relieving Effect
The evaluation of Pain was performed with von Frey filaments [product name: Touch Test Sensory Evaluator, Model Number Model 58011, Muromachi Kikai Co., Ltd.], and the results were calculated as pain thresholds. Specifically, the above diabetic rats were stimulated by the pressure applied to the underside of the feet with von Frey filaments of varying stimulus strengths, and the stimulus strength at which the […] withdrew their feet was determined. From the result, a 50% pain threshold (paw withdrawal threshold)(g) was calculated by using the Dixon's up and down method [Annual Review of Pharmacology and Toxicology, 1980, Vol. 20, p. 441-462].
Rats with a 50% pain threshold of less than 4 g were used for the evaluation of the test compounds. The test compounds were each suspended in a 0.5% methyl cellulose aqueous solution, and orally administered in a 5 mL/kg volume. After 1 hour, the pain threshold was measured using von Frey filaments. The pain relief rate of the test compound was calculated by using the following equation.

Compound	Relief Rate [%]
CNc1ncc2c(n1)N1CCC[C@H]1CN(c1cccc3c1C(=O)C(=O)N3C)C2=O [Compound 1-146, (S)-9-Methylamino-5-(1-methylindoline-2,3-dion-4-yl)-1,2,3,3a,4,5-hexahydro-5,8,10,10b-tetraazabenzo[e]azulen-6-one, reference compound]	6
CNc1ncc2c(n1)N1CCC[C@H]1CN(c1cccn3c(=O)c(C)c(C)nc13)C2=O [Compound 8, (S)-6-(2,3-Dimethyl-4-oxo-4H-pyrido[1,2-a]pyrimidin-9-yl)-2-methylamino-6,7,7a,8,9,10-hexahydro-5H-pyrimido[5,4-f]pyrrolo[1,2-a][1,4]diazepin-5-one]	85
CNc1ncc2c(n1)N1CCC[C@H]1CN(c1cccc3c(=O)n(C)cnc13)C2=O [Compound 10, (S)-6-(3-Methyl-4-oxo-3,4-dihydroquinazolin-8-yl)-2-methylamino-6,7,7a,8,9,10-hexahydro-5H-pyrimido[5,4-f]pyrrolo[1,2-a][1,4]diazepin-5-one]	91

Same assay, conditions: STZ-induced diabetic pain model, 1 mg/kg orally

Compound	inhibition rate (in words)
CNc1ncc2c(n1)N1CCC[C@H]1CN(c1cccn3c(=O)c(C)c(C)nc13)C2=O [Compound 8, (S)-6-(2,3-Dimethyl-4-oxo-4H-pyrido[1,2-a]pyrimidin-9-yl)-2-methylamino-6,7,7a,8,9,10-hexahydro-5H-pyrimido[5,4-f]pyrrolo[1,2-a][1,4]diazepin-5-one]	good inhibition rate
CNc1ncc2c(n1)N1CCC[C@H]1CN(c1cccc3c(=O)n(C)cnc13)C2=O [Compound 10, (S)-6-(3-Methyl-4-oxo-3,4-dihydroquinazolin-8-yl)-2-methylamino-6,7,7a,8,9,10-hexahydro-5H-pyrimido[5,4-f]pyrrolo[1,2-a][1,4]diazepin-5-one]	good inhibition rate

Molecular target: α2δ protein (Rattus norvegicus, UniProt P54290)
Experiment: α2δ protein binding experiment ([3H]-gabapentin binding inhibition)
Conditions: 0.1 μmol/L test compound; [3H]-gabapentin 20 nmol/L; rat cerebral cortex membrane fraction; read-out: inhibitory activity
Description: Experiment was conducted according to the methods described in European Journal of Pharmacology, 1993, 244, p. 293-301, using the report of Woodruff G N et al. as a reference (Journal of Biological Chemistry, 1996, 271, p. 5768-5776).
(1) Preparation of Membrane Fraction from Rat Cerebral Cortex
A male SD rat was purchased at the age of 6 weeks, and kept for at least 7 days prior to experiment. The cerebral cortex was removed, and gently washed with Tris-sucrose buffer A (containing 0.32 mol/L sucrose, 5 mmol/L tris-acetate, 1 mmol/L ethylenediaminetetraacetic acid (EDTA), 1 mmol/L ethylene glycol tetraacetic acid (EGTA), and a protease inhibitor cocktail tablet, pH 7.4). The cerebral cortex was placed in Tris-sucrose buffer A, and homogenized in 15 strokes (250 rpm) using a teflon homogenizer to obtain a crude extract. The crude extract was centrifuged at 4° C. for 10 minutes at 2,000 rpm, and the supernatant was collected. After adding Tris-sucrose buffer A to the resulting precipitate, the same homogenization and centrifugation procedures as above were performed, and the resulting supernatant was mixed with the previously obtained supernatant to obtain a total collected supernatant. The total collected supernatant was centrifuged at 4° C. for 30 minutes at 20,000 rpm, and the supernatant (cytosolic fraction) was removed. Tris-acetate buffer A (containing 5 mmol/L tris-acetate, 1 mmol/L EDTA, 1 mmol/L EGTA, and a protease inhibitor cocktail tablet, pH 8.0) was added to the remaining precipitate (cell membrane fraction), and the mixture was stirred for 1 hour. The stirred extract was centrifuged at 4° C. for 30 minutes at 26,500 rpm, and Tris-sucrose buffer B (containing 1.2 mol/L sucrose, 5 mmol/L tris-acetate, pH 7.4) was added to the resulting precipitate. The mixture was dispensed in centrifuge tubes in 15-mL portions, and 9 mL of Tris-sucrose buffer C (containing 0.9 mol/L sucrose, 5 mmol/L tris-acetate, pH 7.4) was gently layered on the mixture in each centrifuge tube without disrupting the interface. The centrifuge tubes were centrifuged at 4° C. for 90 minutes at 43,000 rpm, and the membrane fraction at the interface of the Tris-sucrose buffer B and the Tris-sucrose buffer C was collected with a Pasteur pipette. After adding Tris-acetate buffer B (5 mmol/L tris-acetate, pH 7.4) to the collected membrane fraction, the mixture was centrifuged at 4° C. for 20 minutes at 26,500 rpm. The resulting precipitate was resuspended in Tris-acetate buffer B to obtain a cerebral cortex membrane fraction, and the cerebral cortex membrane fraction was stored at −80° C. until use in the binding experiment. For the binding experiment, the stored suspension was centrifuged at 4° C. for 30 minutes at 32,000 rpm, and Binding buffer [a 0.1 w/v % bovine serum albumin (BSA)-containing 10 mmol/L 4-(2-hydroxyethyl)-1-piperazineethanesulfonic acid (HEPES) solution adjusted to pH 7.4 with sodium hydroxide] for the binding experiment was added to the obtained precipitate, and resuspended with a syringe equipped with an injection needle to adjust to the desired concentration.
(2) [^3H]-Gabapentin Binding Inhibition Experiment
A test compound (20 μL) diluted to 5 times of the final concentration with Binding buffer, [^3H]-gabapentin diluted to 100 nmol/L with binding buffer [20 μL (final concentration 20 nmol/L)], and the rat cerebral cortex membrane fraction (60 μL; 12 μg membrane fraction) obtained in the (1) above were added to each well of a 96-well round-bottom plate. After being sufficiently mixed, these were allowed to react at room temperature for 1 hour. After the reaction, the reaction sample was suction filtered using a filter plate with 50 μL/well of 0.3 vol % polyethyleneimine added, and a cell harvester. The filter was then washed with ice-cooled Wash buffer (100 mmol/L NaCl, 0.1 w/v % BSA). […]

Chain of α2δ protein (P54290 25-944 limits assumed): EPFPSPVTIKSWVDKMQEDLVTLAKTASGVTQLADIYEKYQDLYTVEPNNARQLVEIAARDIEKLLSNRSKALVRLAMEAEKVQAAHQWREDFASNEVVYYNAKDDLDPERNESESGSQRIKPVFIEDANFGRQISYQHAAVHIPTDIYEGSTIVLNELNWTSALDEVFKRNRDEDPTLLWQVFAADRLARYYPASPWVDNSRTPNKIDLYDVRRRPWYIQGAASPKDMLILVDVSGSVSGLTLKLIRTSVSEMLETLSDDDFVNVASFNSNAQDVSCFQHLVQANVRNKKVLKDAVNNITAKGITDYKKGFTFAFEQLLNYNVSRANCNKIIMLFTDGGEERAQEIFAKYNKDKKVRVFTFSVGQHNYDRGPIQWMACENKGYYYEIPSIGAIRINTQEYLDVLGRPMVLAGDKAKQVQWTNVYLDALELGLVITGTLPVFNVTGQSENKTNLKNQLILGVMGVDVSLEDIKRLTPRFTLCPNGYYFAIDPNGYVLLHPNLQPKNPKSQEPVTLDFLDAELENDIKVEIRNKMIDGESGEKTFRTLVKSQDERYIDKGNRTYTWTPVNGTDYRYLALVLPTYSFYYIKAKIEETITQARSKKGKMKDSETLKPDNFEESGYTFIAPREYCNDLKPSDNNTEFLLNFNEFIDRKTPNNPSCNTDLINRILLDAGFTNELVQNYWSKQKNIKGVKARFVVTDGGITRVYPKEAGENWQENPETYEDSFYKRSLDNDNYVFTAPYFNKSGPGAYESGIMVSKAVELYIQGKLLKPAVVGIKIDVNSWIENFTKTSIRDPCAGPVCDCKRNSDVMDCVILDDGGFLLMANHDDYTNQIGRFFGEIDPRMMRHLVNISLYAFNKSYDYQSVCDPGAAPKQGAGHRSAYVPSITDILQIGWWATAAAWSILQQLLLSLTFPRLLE
Chain of α2δ protein (P54290 945-1091 limits assumed): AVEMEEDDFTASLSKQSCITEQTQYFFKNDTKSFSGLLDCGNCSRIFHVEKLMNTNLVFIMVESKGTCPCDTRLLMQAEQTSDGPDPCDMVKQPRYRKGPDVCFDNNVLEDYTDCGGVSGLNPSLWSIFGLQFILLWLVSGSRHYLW

inhibition at 0.1 µM [%]	Compound
≥ 50	CCNc1ncc2c(n1)N1CCC[C@H]1CN(c1cccc3c1CCC(=O)N3C)C2=O [Compound 83, (S)-2-Ethylamino-6-(1-methyl-2-oxo-1,2,3,4-tetrahydroquinolin-5-yl)-6,7,7a,8,9,10-hexahydro-5H-pyrimido[5,4-f]pyrrolo[1,2-a][1,4]diazepin-5-one]
≥ 50	Cn1cnc2cccc(N3C[C@@H]4CCCN4c4nc(N)ncc4C3=O)c2c1=O [Compound 85, (S)-2-Amino-6-(3-methyl-4-oxo-3,4-dihydroquinazolin-5-yl)-6,7,7a,8,9,10-hexahydro-5H-pyrimido[5,4-f]pyrrolo[1,2-a][1,4]diazepin-5-one]
≥ 50	CCNc1ncc2c(n1)N1CCC[C@H]1CN(c1csc3c(=O)n(C)ccc13)C2=O [Compound 90, (S)-3-(2-Ethylamino-5-oxo-7a,8,9,10-tetrahydro-5H-pyrimido[5,4-f]pyrrolo[1,2-a][1,4]diazepin-6(7H)-yl)-6-methylthieno[2,3-c]pyridin-7(6H)-one]
≥ 50	CNc1ncc2c(n1)N1CCC[C@H]1CN(c1csc3c(=O)n(C)ccc13)C2=O [Compound 91, (S)-6-Methyl-3-(2-methylamino-5-oxo-7a,8,9,10-tetrahydro-5H-pyrimido[5,4-f]pyrrolo[1,2-a][1,4]diazepin-6(7H)-yl)thieno[2,3-c]pyridin-7(6H)-one]
≥ 50	CCNc1ncc2c(n1)N1CCC[C@H]1CN(c1cn(C)c3c(=O)n(C)ccc13)C2=O [Compound 93, (S)-6-(1,6-Dimethyl-7-oxo-6,7-dihydro-1H-pyrrolo[2,3-c]pyridin-3-yl)-2-ethylamino-6,7,7a,8,9,10-hexahydro-5H-pyrimido[5,4-f]pyrrolo[1,2-a][1,4]diazepin-5-one]
≥ 50	CCNc1ncc2c(n1)N1C[C@H](F)C[C@H]1CN(c1cccc3c(=O)n(C)cnc13)C2=O [Compound 115, (7aS,9R)-2-Ethylamino-9-fluoro-6-(3-methyl-4-oxo-3,4-dihydroquinazolin-8-yl)-6,7,7a,8,9,10-hexahydro-5H-pyrimido[5,4-f]pyrrolo[1,2-a][1,4]diazepin-5-one]
≥ 50	CCNc1ncc2c(n1)N1C[C@@H](OC)C[C@H]1CN(c1cccc3c(=O)n(C)cnc13)C2=O [Compound 117, (7aS,9S)-2-Ethylamino-9-methoxy-6-(3-methyl-4-oxo-3,4-dihydroquinazolin-8-yl)-6,7,7a,8,9,10-hexahydro-5H-pyrimido[5,4-f]pyrrolo[1,2-a][1,4]diazepin-5-one]
≥ 50	CCNc1ncc2c(n1)N1C[C@H](O)C[C@H]1CN(c1cccc3c(=O)n(C)cnc13)C2=O [Compound 118, (7aS,9R)-2-Ethylamino-9-hydroxy-6-(3-methyl-4-oxo-3,4-dihydroquinazolin-8-yl)-6,7,7a,8,9,10-hexahydro-5H-pyrimido[5,4-f]pyrrolo[1,2-a][1,4]diazepin-5-one]

Reference: patent US9453021B2, “Pyrimidodiazepinone compound” (Kyowa Hakko Kirin Co., Ltd., priority 2011, dated 2016)
